Where no end group is shown, it is not given here.
Assays:
intravaginal protease = assay: Protease activity of vaginal wash with BAEE as substrate after intravaginal preparation; format: biochemical, rat
Method: The calcitonin pharmaceutical preparation was prepared according to Examples 1 and 2. The preparation was inserted into the vagina with a small cotton ball. Two hours after the insertion, the inserted cotton ball was removed from the vagina. The vagina was then washed with a fixed quantity of phosphate buffered saline solution, the washed solution was combined with the cotton ball, and the protease activity was determined with BAEE as substrate.

[1] = tested on: oophorectomized female Wister rats; assay: Serum calcium decrease after intravaginal porcine calcitonin in young oophorectomized rats; format: in vivo, rat
Method: Oophorectomy was performed on 5- to 6-week old female Wister rats which, after about one month, were used in this experiment as an animal model for postmenopausal women.
To 20 I.U. porcine calcitonin, 3 mg of bovine serum albumin (BSA) was added. Sodium lauryl sulfate (hereinafter called "SDS") was then added to the above-prepared mixture to make 0.05, 0.1, 0.5 and 1 w/v% concentrations, respectively. The mixtures of different SDS concentrations were then each diluted with 0.1M acetic acid/sodium acetate buffer solution (pH 5.0) to make 1 ml calcitonin solutions. Rats were anesthetized with ether, and a required amount of blood was taken from the right external jugular vein before the administration of calcitonin. After a small cotton ball was inserted into the vagina of the rat, each 50 microliters of calcitonin solution of different SDS concentrations was administered. Blood was again extracted 2 hours after calcitonin administration.
After the separation of blood serum, serum calcium concentration was determined with a Calcium C test kit, a registered trademark at Wako Chemical in Japan. The results are depicted in FIG. 1.
Oophorectomized menopausal model rats were used in this experiment, similarly to Example 1.
Bovine serum albumin was added to each 1 ml of 2, 10, 20, 40 and 80 I.U./ml of porcine calcitonin dissolved in acetic acid buffer solution (pH 5.0) to make 3 mg/ml. Then, SDS was added to each solution to make 1 w/v%. Similarly to Example 1, these preparations containing different concentrations of calcitonin were administered intravaginally to the rats, and the serum calcium concentration was determined. […] The largest ratio of decreased serum calcium against control noted in this experiment was 30%.

oophorectomized rats [2] = assay: Serum H-CT (RIA) and serum calcium after intravaginal H-CT with sodium caprate and Nonidet P-40; format: in vivo, rat; settings: 250 micrograms H-CT, 0.3% BSA, 1% sodium caprate, 2% Nonidet P-40, pH 5, 1, 2 and 4 hours
Method: Oophorectomized rats were used in this experiment in a similar manner as Example 3. 1 mg of H--CT was dissolved in 400 microliters of 0.1M acetate buffer (pH 5) containing 0.3 w/v% bovine serum albumin (BSA) and 1% sodium caprate and 2% Nonidet P-40. 100 microliters of H--CT solution (250 micrograms H--CT) was administered into the vagina of the rat with a small cotton ball. Blood samples were taken from the right external jugular vein of the anesthetized rats at 1, 2 and 4 hours after administration. Serum calcium was determined with a Calcium C test kit. Serum H--CT was also determined by the RIA method using human calcitonin antibody.

oophorectomized rats [3] = assay: Serum calcitonin (RIA) and serum calcium after intravaginal human calcitonin with SDS; format: in vivo, rat; settings: 10-200 micrograms HCT per kg, 0.3% BSA, 1 w/v% SDS, pH 5, 2 hours
Method: Similarly to Examples 1 and 2, oophorectomized rats were used in this experiment. 1000 micrograms of Human calcitonin (HCT) was dissolved in 1 ml of 0.1M acetate buffer (pH 5) containing 0.3 w/v% bovine serum albumin and 1 w/v% SDS. 10, 25, 50, 100 and 200 micrograms of HCT (protein weight) in solution per 1 kg body weight of rats were taken out of the HCT solution mentioned above, and each portion of the HCT solution was diluted up to 50 microliters with 0.1M acetate buffer (pH 5) containing 0.3% (w/v%) bovine serum albumin and 1 w/v% SDS. Each 50 microliters of HCT solution with a different amount of HCT was administered into the vagina with a small cotton ball. Two hours after drug administration, blood was extracted from the right external jugular vein of the anesthetized rat, and serum calcium was determined with a Calcium C test kit. Serum calcitonin was also determined by a radioimmunoassay method (RIA method), using human calcitonin antibody.

oophorectomized rats [4] = assay: Serum glucose after intravaginal insulin preparation; format: in vivo, rat; settings: 5 U. insulin, 1 w/v% SDS
Method: The oophorectomized rats described in Example 1 were used in this experiment. The insulin pharmaceutical preparation prepared according to this invention was administered intravaginally to the rats, and the change in plasma glucose was investigated. Bovine serum albumin and SDS were added to a solution of 100 U./ml insulin in 0.1M acetic acid/sodium acetate buffer solution to make a final concentration of 3 mg/ml and 1 w/v%, respectively. The pH was adjusted to 5.0 with 0.1M acetic acid/sodium acetate buffer solution. The 5 U. insulin preparation was administered into the vagina of the rat with a small cotton ball. Serum glucose at 2 hours after drug administration was compared with that before drug administration. It was noted that at 2 hours after drug administration, the blood sugar level decreased about 30% in comparison with that prior to drug administration.

[5] = tested on: 5-week-old Wister male rats; assay: Effect of SDS on calcitonin stability: bioassay of stored preparations by intramuscular injection; format: in vivo, rat
Method: A porcine calcitonin (P--CT) pharmaceutical preparation according to the invention was prepared by the method described in Examples 1 and 2, and the stability of porcine calcitonin in the resultant preparation was investigated. Thus, 1 ml of 3 mg/ml bovine serum albumin (BSA) solution was added to 40 I.U. of porcine calcitonin, and the mixture was divided into two equal portions. SDS was added to one of the portions to make a final concentration of 0.1 w/v%; and no SDS was added to the other portion. The pH of both of the preparations was then adjusted to pH 5 with acetic acid/sodium acetate buffer (0.1M) solution. These two preparations were then stored at 37° C. for 8 days. The biological activity of calcitonin of the 8-day stored preparations was then investigated using 5-week-old Wister male rats. A dosage of 0.12 I.U./kg calcitonin of these two preparations was administered to the rats by injection into the femoral muscle. One hour after drug administration, blood was extracted from the right external jugular vein, and the blood calcium content was determined.

[6] = tested on: 5-week-old male Wister rats; assay: Effect of pH and human serum albumin on calcitonin stability: bioassay by intramuscular injection; format: in vivo, rat; settings: 0.03 I.U./ml, 4° C. for one week, bioassay 0.06 I.U./kg i.m.
Method: Using blood calcium decreasing ratio as an indication, the effect of pH and human serum albumin (HSA) on the stability of calcitonin in the preparation of this invention was investigated using 5-week-old male Wister rats.
Purified porcine calcitonin (P--CT) was dissolved in 0.1M acetic acid buffer solutions of pH 3.0 and pH 5.0 and 0.1M phosphoric acid buffer solution of pH 6.8 so that each of the solutions contained 0.03 I.U./ml of porcine calcitonin. Each calcitonin solution (pH 3.0, 5.0, 6.8) was divided into two parts. In each case, to one portion of the calcitonin solutions 3 mg/ml of HSA was added, while no treatment was performed on the other portion. The resultant preparations were stored at 4° C. for one week. These calcitonin preparations were then each injected into the femoral bicipital muscle of the rats at a dosage of 0.06 I.U. per kg body weight. An appropriate quantity of blood was extracted from the right external jugular vein, and blood […] was determined with a Calcium C-Test kit.

[7] = tested on: aged, oophorectomized rats; assay: Serum calcium decrease by porcine calcitonin in aged oophorectomized rats; format: in vivo, rat; settings: intramuscular injection (femoral bicipital muscle), different concentrations
Method: The ovaries of 30-week-old female Wister rats were excised about one month before use in the experiment.
Prior to this experiment, a separate experiment was performed to investigate the susceptibility of aged, oophorectomized rats to porcine calcitonin. Different concentrations of calcitonin were injected into rats in the femoral bicipital muscle, and the decreasing serum calcium was determined.
Following the procedure of Examples 1 and 2, a dose of 4 I.U. calcitonin per rat was prepared and administered intravaginally by inserting a small cotton ball in the vagina. Following the procedure of Examples 1 and 2, blood was extracted and the blood calcium concentration was determined.

oophorectomized rats [8] = assay: Serum calcium and serum calcitonin after intravaginal S-CT suppository; format: in vivo, rat; settings: PEG suppository, 250 micrograms S-CT, BSA, Nonidet P-40, sodium caprate, 1, 2 and 4 hrs
Method: The model animals and experimental procedures are similar to that described in Example 10. The suppositories used in this Example were prepared as follows. 1 mg of S--CT was dissolved in 100 microliters of 0.1M acetate buffer solution (pH 5) containing 1.5 mg of BSA (bovine serum albumin), 10 mg of Nonidet P-40, and 5 mg of sodium caprate. 383 mg of suppository base composed of PEG 4000 (33%), PEG 6000 (47%) and distilled water (20%) was warmed to 45° to 50° C., then mixed well with the S--CT solution using a Vortex mixer for 1 min, then transferred into a brass suppository mold and cooled to approximately 4° C. for 2 hrs. 125 mg of S--CT suppository contained 250 micrograms of S--CT. 250 micrograms of a S--CT suppository was administered into the rat vagina. 1, 2, and 4 hrs after administration, blood samples were taken, and the serum calcium concentration and the serum calcitonin were determined by the same method used in Example 10.

[9] = 3 mg/ml BSA, pH 5.0, after 2 hours

CCCCCCCCCCCCOS(=O)(=O)[O-].[Na+] [SDS, Sodium lauryl sulfate]
decrease of protease activity in comparison with the control group (intravaginal protease; 1% SDS added group versus control without SDS): about 30%
protease activity relative to control (control = 100.0) (intravaginal protease; 1% SDS in calcitonin preparation, vaginal wash 2 hours after insertion): 29.2
protease activity (intravaginal protease; 1% SDS in calcitonin preparation, vaginal wash plus cotton ball 2 hours after insertion): 6.84 BAEE units/mg protein
ratio of decreased serum calcium concentration against the control ([1]; porcine calcitonin 20 I.U./ml, 3 mg BSA, SDS 0.05, 0.1, 0.5 and 1 w/v%, pH 5.0, 50 microliters intravaginal, 2 hours, control without SDS): increased correspondingly with increasing concentration of SDS

Human calcitonin [HCT]
serum calcitonin (RIA) (oophorectomized rats [2]): increased proportionally to the increase in the dosage of calcitonin administered into the vagina
serum calcium (oophorectomized rats [2]): decreased correspondingly with an increase in calcitonin dosage
serum calcitonin (RIA) (oophorectomized rats [3]): increased proportionally to the increase in the dosage of calcitonin administered into the vagina
serum calcium (oophorectomized rats [3]): decreased correspondingly with increase in calcitonin dosage

insulin
Glucose Concentration in Serum (oophorectomized rats [4]; [9]): 53 ± 24.6 mg/dL
Glucose Concentration in Serum relative to prior to administration (100) (oophorectomized rats [4]; [9]): 70.7%
decrease of blood sugar level in comparison with that prior to drug administration (oophorectomized rats [4]; BSA, 2 hours): about 30%

porcine calcitonin (CSNLSTCVLSAYWRNLNNFHRFSGMGFGPETP; ends and bridges not checked; cysteine pairing not given here; UniProt P01259 1-32, looked up) [P-CT]
Ratio of Decreased Calcium Concentration Against Control, 0 day ([5]; P-CT (40 I.U.)/0.3% BSA/ml, pH 5.0, freshly made, 0.12 I.U./kg i.m., 1 hour): 20.7
Ratio of Decreased Calcium Concentration Against Control, 8 days (at 37° C.) ([5]; P-CT (40 I.U.)/0.3% BSA/ml, pH 5.0, stored 8 days at 37° C., 0.12 I.U./kg i.m., 1 hour): 11.1
biological activity after the 8-day storage period ([5]; stored at 37° C. for 8 days, pH 5, compared with freshly made preparation): decreased to about half that of the freshly made preparation
stability of calcitonin in pH 6.8 solution with HSA ([6]; 3 mg/ml HSA added): became as stable as calcitonin in a solution of pH 3.0 or 5.0
stability of calcitonin in buffer solutions without HSA, pH 3.0 and 5.0 ([6]; 0.1M acetic acid buffer): stable
stability of calcitonin in buffer solution without HSA, pH 6.8 ([6]; 0.1M phosphoric acid buffer): unstable
ratio of decreased serum calcium against control (dose response) ([1]; 2, 10, 20, 40 and 80 I.U./ml porcine calcitonin, 3 mg/ml BSA, 1 w/v% SDS, pH 5.0, intravaginal): exhibited an increase proportional to the increase of calcitonin concentration
largest ratio of decreased serum calcium against control ([1]; 2-80 I.U./ml porcine calcitonin, 3 mg/ml BSA, 1 w/v% SDS, intravaginal, young oophorectomized rats): 30%
largest ratio of decreased serum calcium against control [7]: about 10%

salmon calcitonin [S--CT]
absorption of S-CT and its biological activity (oophorectomized rats [8]): exhibit a dose-dependent response
